We go through 17 molecules from ChEMBL document CHEMBL1857833, “Screening and optimization of specific chemical series against human African Trypanosomiasis (HAT)”.

The test system of data set [1] is Trypanosoma brucei. As to the kind of experiment: DNDI: Inhibition of Human African Trypanosomiasis, SBRI 427, in vitro. Type of data set: functional, organism-based.
The conditions of data set [2]: mouse, microsomes, 1 µM.
Description: DNDI: in vitro intrinsic clearance in mouse liver microsomes at a concentration of 1uM
Data set [3] is described as follows: DNDI: Cytotoxicity against L929 mouse fibroblasts, CYTO-SP, 24 hour. The class given is toxicity, cell-based. As to conditions: mouse, L929 mouse fibroblasts.
The nature of another data set: in vitro. As to conditions: mouse, liver microsomes, t (1 / 2). For orientation: Microsomes from liver hold many membrane-bound enzymes, among them those of drug oxidation.
Data set [4] can be described thus: DNDI: Solubility in phosphate buffered saline at pH7.4 measured by nephelometry at room temperature (NEPH-RT). The class given is physicochemical. As to conditions: pH 7.4.
Data set [5] can be described thus: DNDI: Lipophilicity measured in Chromatographic hydrophobicity index (CHI) assay, pH 7.4. The class given is physicochemical. As to conditions: buffer.
Data set [6] can be described thus: DNDI: Cytotoxicity against L929 mouse fibroblasts, 72 hour. The class given is toxicity, cell-based. As to conditions: mouse, L929 mouse fibroblasts.
Data set [7] relates to Trypanosoma brucei. In words: DNDI: Inhibition of Human African Trypanosomiasis, Cross 22, in vitro. The class given is functional, organism-based.
Setting [8] is: Trypanosoma brucei, SBRI 427, read-out: IC50.

Structures are written as SMILES. In brackets after ≈: the same amount, converted by molar mass. Several values for one entry are separate records, joined by “and”; a condition that tells them apart may be missing. Equal values may be shown once.

Description for in vitro: DNDI: half life in mouse liver microsomes at a concentration of 1uM

On to `CCCCCOc1ccc(-c2nc(CNC3CC(C)CC(C)(C)C3)co2)cc1` (stereo not given), for which the IC50 (in general, the concentration needed to halve the response being measured) in the data set with Trypanosoma brucei [1] (setting [8]) was 0.16 µg/mL (≈ 0.416 µM). The molecule also registered a CLint in vitro in data set [2] of 8 µL/min/mg. In data set [3], this molecule returned an IC50 at 24 h of more than 50 µg/mL. For the same molecule, in “in vitro”, the half-life (usually how long it takes for the measured level to halve) at 1 µM came out at 107 min. Also, the kinetic solubility – broadly, the concentration staying in solution when a stock, usually in DMSO, is diluted into the medium – in data set [4] is 2 µM (≈ 0.769 µg/mL). Further, the chromatographic logD (usually a lipophilicity value derived from retention on a column) in data set [5] was found to be 6.02. In data set [6], this molecule displayed an IC50 at 72 h of less than 3.13 µg/mL.
On to `Clc1ccc(-c2nc(CNC3CCCCCC3)co2)cc1`, for which the IC50 was 1.61 µg/mL and 1.55 µg/mL in the data set with Trypanosoma brucei [1]; 1.27 µg/mL (≈ 4.17 µM) in the data set with Trypanosoma brucei [1] (setting [8]); 1.45 µg/mL (≈ 4.76 µM) in the data set on Trypanosoma brucei [7]. The molecule further returned an IC50 at 24 h in data set [3] of 26.6 µg/mL (≈ 87.3 µM). 3.43 µg/mL (≈ 11.3 µM) corresponded to half-maximal inhibition in data set [6] (IC50 at 72 h).
`CC1(C)[C@H]2CC[C@@H](CNCc3coc(-c4ccc(Cl)cc4)n3)[C@@H]1C2`: the IC50 with Trypanosoma brucei [1] is 0.9 µg/mL and 1.53 µg/mL; with Trypanosoma brucei [1] (setting [8]) it was 0.8 µg/mL (≈ 2.32 µM); in the data set with Trypanosoma brucei [7], 1.04 µg/mL (≈ 3.02 µM). Further, the IC50 at 24 h in data set [3] was more than 50 µg/mL. The IC50 at 72 h in data set [6] was 3.52 µg/mL (≈ 10.2 µM).
For the molecule `CC1CC(NCc2coc(-c3ccc(C(C)(C)C)cc3)n2)CC(C)(C)C1` (stereo not given), the IC50 in the data set on Trypanosoma brucei [1] (setting [8]) and in the data set on Trypanosoma brucei [7] was more than 5 µg/mL each time. In data set [3], this molecule showed an IC50 at 24 h of more than 50 µg/mL. This molecule yielded an IC50 at 72 h in data set [6] of more than 50 µg/mL.
Turning to `Cc1ccc(-c2nc(CNCCC3CCCN3C)c(C)o2)cc1` (stereo not given), the IC50 in the data set with Trypanosoma brucei [1] (setting [8]) is 0.43 µg/mL (≈ 1.37 µM). In data set [4], this molecule gave a solubility (kinetic) of more than 200 µM. Also, in data set [5], the chromatographic logD is 3.3. Besides, in data set [6], half-maximal inhibition (IC50 at 72 h) required 7.78 µg/mL (≈ 24.8 µM).
Consider `COc1ccc(/C(=N/O)Nc2cccc(F)c2)cc1`, for which, in the data set with Trypanosoma brucei [1] (setting [8]), the IC50 was determined as 0.67 µg/mL (≈ 2.57 µM). In data set [2], this molecule showed a CLint in vitro of 143.33 µL/min/mg. Further, the half-life at 1 µM in “in vitro” amounted to 5.93 min. The molecule further yielded a solubility (kinetic) in data set [4] of 50 µM (≈ 13 µg/mL). In addition, in data set [5], the chromatographic logD is 3.09. Besides, the IC50 at 72 h in data set [6] was more than 10 µg/mL.
Take `O/N=C(/c1ccccc1-c1ccccc1)N1CCCCC1`: the IC50 with Trypanosoma brucei [1] (setting [8]) is more than 5 µg/mL. In data set [2], the CLint in vitro was found to be 157 µL/min/mg. Further, in data set [3], the IC50 at 24 h is more than 50 µg/mL. In addition, the half-life at 1 µM in “in vitro” came out at 5 min. Also, the solubility (kinetic) in data set [4] was found to be 50 µM (≈ 14 µg/mL). Moreover, in data set [5], the chromatographic logD came to 4.46.
As for `CC1CC(NCc2coc(-c3ccc(Cl)cc3)n2)CC(C)(C)C1` (stereo not given), the half-inhibitory concentration (IC50) in the data set on Trypanosoma brucei [1] was 0.86 µg/mL and 1.52 µg/mL; with Trypanosoma brucei [1] (setting [8]), 1.18 µg/mL (≈ 3.54 µM); with Trypanosoma brucei [7], 0.85 µg/mL (≈ 2.55 µM). Besides, the IC50 at 24 h in data set [3] is more than 50 µg/mL. The molecule also registered an IC50 at 72 h in data set [6] of less than 3.13 µg/mL.
As for `CCCCc1ccc(-c2nc(CNCCN(C)C)co2)cc1`, the IC50 in the data set with Trypanosoma brucei [1] (setting [8]) was found to be 0.79 µg/mL (≈ 2.62 µM). Moreover, the CLint in vitro in data set [2] came out at 55 µL/min/mg. For the same molecule, the half-life at 1 µM in “in vitro” came out at 15 min. Moreover, the solubility (kinetic) in data set [4] is 1 µM (≈ 0.301 µg/mL). For the same molecule, the chromatographic logD in data set [5] turned out to be 4.97. This molecule displayed an IC50 at 72 h in data set [6] of 4.87 µg/mL (≈ 16.2 µM).
With `O=C1CCCN1CCCNc1cc(-c2ccccc2)nc2cc(-c3ccc(F)cc3)nn12`, the IC50 in the data set with Trypanosoma brucei [1] (setting [8]) was more than 5 µg/mL. The solubility (kinetic) in data set [4] turned out to be 6 µM (≈ 2.58 µg/mL). The chromatographic logD in data set [5] was 4.77. Also, the IC50 at 72 h in data set [6] is more than 10 µg/mL.
As for `COc1ccc(/C(=N/O)Nc2ccc(F)cc2)cc1`, in the data set on Trypanosoma brucei [1] (setting [8]), the IC50 was 4.54 µg/mL (≈ 17.4 µM). In data set [2], this molecule gave a CLint in vitro of 118 µL/min/mg. In “in vitro”, the half-life at 1 µM was 7 min. The molecule also returned a solubility (kinetic) in data set [4] of 100 µM (≈ 26 µg/mL). This molecule also showed a chromatographic logD in data set [5] of 3.02. In data set [6], this molecule showed an IC50 at 72 h of more than 10 µg/mL.
As to `CCC(C)C(NCc1ccccc1OC)c1nc(-c2ccccc2)c(N2CCCCC2)o1` (stereo not given), the IC50 in the data set on Trypanosoma brucei [1] (setting [8]) came out at 4.82 µg/mL (≈ 11.1 µM). Moreover, the CLint in vitro in data set [2] is 227 µL/min/mg. The half-life at 1 µM in “in vitro” was found to be 4 min. For the same molecule, the kinetic solubility in data set [4] came to 2 µM (≈ 0.867 µg/mL). Besides, in data set [5], the chromatographic logD was more than 5.2. In data set [6], this molecule had an IC50 at 72 h of more than 10 µg/mL.
Regarding `CCCCc1ccc(-c2nc(CNCCN3CCCC3)co2)cc1`, the concentration for half-maximal inhibition (IC50) with Trypanosoma brucei [1] (setting [8]) was found to be 0.84 µg/mL (≈ 2.57 µM). In data set [2], the CLint in vitro is 33 µL/min/mg. Also, the half-life at 1 µM in “in vitro” was found to be 26 min. Moreover, the solubility (kinetic) in data set [4] is less than 1 µM. The same molecule registered a chromatographic logD in data set [5] of 4.89. The molecule also yielded an IC50 at 72 h in data set [6] of 3.87 µg/mL (≈ 11.8 µM).
Consider `CCC(C)C1C(=O)CC(=O)N1C(=O)OC(C)(C)C` (stereo not given), for which the IC50 in the data set on Trypanosoma brucei [1] (setting [8]) was more than 5 µg/mL. The solubility (kinetic) in data set [4] was more than 200 µM. In data set [5], this molecule yielded a chromatographic logD of 4.54. In data set [6], this molecule gave an IC50 at 72 h of more than 10 µg/mL.
For the molecule `Fc1cccc(-c2cc3nc(-c4ccccc4)cc(NCCCN4CCCC4)n3n2)c1`, the IC50 with Trypanosoma brucei [1] (setting [8]) was 1.02 µg/mL (≈ 2.45 µM). The molecule further came in with a kinetic solubility in data set [4] of 3 µM (≈ 1.25 µg/mL). The chromatographic logD in data set [5] came to 4.79. In data set [6], this molecule returned a 50% inhibitory concentration (IC50) at 72 h of 2.49 µg/mL (≈ 5.99 µM).
For the molecule `O/N=C(/Nc1ccc(F)cc1)c1ccccc1-c1ccccc1`, the IC50 with Trypanosoma brucei [1] (setting [8]) amounted to 3.46 µg/mL (≈ 11.3 µM). The molecule also had a CLint in vitro in data set [2] of 59 µL/min/mg. The molecule further registered an IC50 at 24 h in data set [3] of more than 50 µg/mL. In “in vitro”, this molecule gave a half-life at 1 µM of 14 min. Further, the solubility (kinetic) in data set [4] worked out at 25 µM (≈ 7.66 µg/mL). This molecule also came in with a chromatographic logD in data set [5] of 3.98.
With `CCCCCC(C)NCc1coc(-c2ccc(OCC(=O)c3ccccc3)cc2)n1` (stereo not given), the IC50 with Trypanosoma brucei [1] (setting [8]) amounted to 0.59 µg/mL (≈ 1.45 µM). In data set [2], this molecule had a CLint in vitro of 188 µL/min/mg. Further, the half-life at 1 µM in “in vitro” came to 5 min. Besides, in data set [4], the solubility (kinetic) turned out to be 2 µM (≈ 0.813 µg/mL). Besides, the chromatographic logD in data set [5] was determined as 4.16. In data set [6], this molecule came in with an IC50 at 72 h of 1.74 µg/mL (≈ 4.28 µM).
